The values below come from patent publication US7842683B2, “Neurotherapeutic compositions and method” (Revaax Pharmaceuticals, LLC, priority 1999, dated 2010).

One series concerns male golden hamsters. Description: Resident/intruder paradigm of offensive aggression. It is filed as in vivo, Syrian golden hamsters (Mesocricetus auratus). Here is the method: Male Syrian golden hamsters (Mesocricetus auratus) (140-150 g) obtained from Harlan Sprague-Dawley Laboratories (Indianapolis, Ind.) were housed individually in Plexiglas cages (24 cm×24 cm×20 cm), maintained on a reverse light:dark cycle (14L:10D; lights on at 19:00 hr) and provided food and water ad libitum. Animals were acclimated to the reverse light:dark cycle for at least two weeks before testing. All behavioral tests were conducted during the dark phase of the circadian cycle. All animals were acquired and cared for in accordance with the guidelines published in the Guide for the Care and Use of Laboratory Animals (National Institutes of Health Publications No. 85-23, Revised 1985).
(§1) Agonistic behavior can be classified as either offensive or defensive aggression (Blanchard and Blanchard, 1977; Adams, […]; Albert and Walsh, 1984). Offensive aggression is characterized by the aggressor initiating an attack on an opponent, while defensive aggression lacks active approach. Both types of aggression have their own unique neurobehavioral systems. The stimuli that elicit offensive and defense attack are different, as are the sequences of behaviors that accompany each agonistic response. […] Offensive aggression is easily studied using male golden hamsters tested in a resident/intruder paradigm, an established model of offensive aggression (Ferris and Potegal 1988). Placing an unfamiliar male hamster into the home cage of another male hamster elicits a well-defined sequence of agonistic behaviors from the resident that includes offensive aggression.
Hamsters are nocturnal and as such all behavioral tests were performed during the first four hrs of the dark phase under dim red illumination. The resident was scored for offensive aggression, e.g., latency to bite the intruder, the total number of bites, total contact time with the intruder and flank marking over a 10 min test period (Ferris and Potegal, 1988). Flank marking is a form of olfactory communication in which a hamsters arches its back and rubs pheromone producing flank glands against objects in the environment (Johnson, 1986).
Parametric data, i.e., latencies and contact time, were analyzed with a one-way ANOVA followed by Newman-Keuls post hoc tests. Non parametric data, i.e., number of bites and flank marks, were analyzed with Kruskal-Wallis tests followed by Mann-Whitney U tests to determine differences between groups. Two sample comparisons were analyzed with paired and unpaired t-Tests for parametric data and Wilcoxon and Mann-Whitney Tests for paired and unpaired non-parametric data, respectively.
as §1, with “by an” for “by the”, “an opponent; while,” for “an opponent, while”, “Potegal 1988) in the context of defending the home burrow.” for “Potegal 1988).”
Hamsters are nocturnal and as such all behavioral tests were performed during the first four hrs of the dark phase under dim red illumination. The resident was scored for offensive aggression, e.g., latency to bite the intruder, the total number of bites, total contact time with the intruder and flank marking over a 10 min test period (Ferris and Potegal, 1988). […]

For series [1] the following is noted: in vivo; cited from earlier work.
Where [2] appears, read: high dose ca. 5 mg/kg, 9 mM, IP.
Where [3] appears, read: high dose ca. 5 mg/kg, 9 mM, IP, 90 min.

As for `CC1(C)S[C@@H]2[C@H](NC(=O)[C@H](N)c3ccccc3)C(=O)N2[C@H]1C(=O)O` [Amp, Ampicillin], the contact time result with male golden hamsters (equimolar (90 μM) IP, 90 min) is given as “no significant treatment effect”; in the series with male golden hamsters (setting [2]), “no significant treatment effect”. Also, the flank marking result with male golden hamsters (equimolar (90 μM) IP, 90 min) was “no significant treatment effect”; with male golden hamsters (setting [2]) it was “no significant treatment effect”. In addition, the number of bites result is given as “significantly reduced” with male golden hamsters (equimolar (90 μM) IP, 90 min) and “significantly reduced” in the series on male golden hamsters (setting [3]). For the same compound, the latency to bite result with male golden hamsters (equimolar (90 μM, equal to 50 μg/kg Mox) IP, 90 min) was “significantly delayed”; in the series on male golden hamsters (setting [3]), “significantly delayed”.

In the case of `CO[C@@]1(NC(=O)Cc2cccs2)C(=O)N2C(C(=O)O)=C(COC(N)=O)CS[C@@H]21` [Cef, Cefoxitin], in the series with male golden hamsters (equimolar (90 μM) IP, 90 min), the contact time result is on record as “no significant treatment effect” and the flank marking entry was “no significant treatment effect”. In the series with male golden hamsters (setting [2]), the contact time result is reported as “no significant treatment effect” and the flank marking entry was “no significant treatment effect”. For the same compound, in series [1], the “blood-brain barrier transport / CNS penetrability” value was “poor CNS penetrability”.

For the compound `CC1(C)S[C@@H]2[C@H](NC(=O)C(C(=O)O)c3ccccc3)C(=O)N2[C@H]1C(=O)O` (stereo partly shown) [Carb, Carbenicillin], in the series on male golden hamsters (equimolar (90 μM) IP, 90 min), the contact time result was “no significant treatment effect” and the flank marking entry was “no significant treatment effect”. In the series with male golden hamsters (setting [2]), the contact time entry is “no significant treatment effect” and the flank marking entry was “no significant treatment effect”. For the same compound, in the series with male golden hamsters (setting [3]), the latency to bite entry is “significantly delayed” and the number of bites result was “significantly reduced”.

As for `CC1(C)S[C@@H]2[C@H](NC(=O)[C@H](N)c3ccc(O)cc3)C(=O)N2[C@H]1C(=O)O` [Amox, Amoxicillin], in the series with male golden hamsters (1 mg/kg (ca. 2 mM) IP, 90 min), the aggressive behavior result is “not significantly altered”. In the series on male golden hamsters (equimolar (90 μM) IP, 90 min), the contact time result was “no significant treatment effect” and the flank marking entry is recorded as “no significant treatment effect”.
